Source: PubChem BioAssay (NCI)
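Exposure lasted 48 hours, with cells grown in 96-well plates and compounds tested at five concentrations. TGI: total growth inhibition.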

How the values were obtained:
Assay in all cases: NCI anticancer screen, dose series, 48 h
HOP-92 NSCLC = tested on: HOP-92 NSCLC
M19-MEL melanoma = tested on: M19-MEL melanoma
HT29 colon = tested on: HT29 colon
786-0 renal = tested on: 786-0 renal
HL-60(TB) leukemia = tested on: HL-60(TB) leukemia
SF-268 CNS = tested on: SF-268 CNS
SF-295 CNS = tested on: SF-295 CNS
K-562 leukemia = tested on: K-562 leukemia
SK-MEL-28 melanoma = tested on: SK-MEL-28 melanoma
OVCAR-8 ovarian = tested on: OVCAR-8 ovarian
OVCAR-4 ovarian = tested on: OVCAR-4 ovarian
SNB-19 CNS = tested on: SNB-19 CNS
DLD-1 colon = tested on: DLD-1 colon
NCI-H522 lung = tested on: NCI-H522 lung
A549 NSCLC = tested on: A549 NSCLC
IGROV1 ovarian = tested on: IGROV1 ovarian
HOP-62 NSCLC = tested on: HOP-62 NSCLC
SNB-75 CNS = tested on: SNB-75 CNS
ACHN renal = tested on: ACHN renal
SN12C renal = tested on: SN12C renal
SF-539 CNS = tested on: SF-539 CNS
CCRF-CEM leukemia = tested on: CCRF-CEM leukemia
LOX IMVI melanoma = tested on: LOX IMVI melanoma
SK-OV-3 ovarian = tested on: SK-OV-3 ovarian
UO-31 renal = tested on: UO-31 renal
HCT-116 colon = tested on: HCT-116 colon
DMS 273 small cell lung = tested on: DMS 273 small cell lung
UACC-62 melanoma = tested on: UACC-62 melanoma
KM12 colon = tested on: KM12 colon
TK-10 renal = tested on: TK-10 renal
NCI-H226 lung = tested on: NCI-H226 lung
SR leukemia = tested on: SR leukemia
OVCAR-3 ovarian = tested on: OVCAR-3 ovarian
NCI-H23 lung = tested on: NCI-H23 lung
EKVX NSCLC = tested on: EKVX NSCLC
OVCAR-5 ovarian = tested on: OVCAR-5 ovarian
CAKI-1 renal = tested on: CAKI-1 renal
A498 renal = tested on: A498 renal
MOLT-4 leukemia = tested on: MOLT-4 leukemia
SW-620 colon = tested on: SW-620 colon
M14 melanoma = tested on: M14 melanoma
DMS 114 small cell lung = tested on: DMS 114 small cell lung
XF 498 CNS = tested on: XF 498 CNS
MALME-3M melanoma = tested on: MALME-3M melanoma
RXF 393 renal = tested on: RXF 393 renal
KM20L2 colon = tested on: KM20L2 colon
UACC-257 melanoma = tested on: UACC-257 melanoma
HOP-18 NSCLC = tested on: HOP-18 NSCLC
HCC-2998 colon = tested on: HCC-2998 colon
U251 CNS = tested on: U251 CNS
LXFL 529 NSCLC = tested on: LXFL 529 NSCLC
SK-MEL-5 melanoma = tested on: SK-MEL-5 melanoma
RXF-631 renal = tested on: RXF-631 renal
COLO 205 colon = tested on: COLO 205 colon
HCT-15 colon = tested on: HCT-15 colon
SNB-78 CNS = tested on: SNB-78 CNS
RPMI-8226 leukemia = tested on: RPMI-8226 leukemia
SK-MEL-2 melanoma = tested on: SK-MEL-2 melanoma
NCI-H460 lung = tested on: NCI-H460 lung

COc1cc(=O)oc(/C=C/CO)c1C
TGI (HOP-92 NSCLC): > 100 µM
TGI (M19-MEL melanoma): > 100 µM
TGI (HT29 colon): > 100 µM
TGI (786-0 renal): > 100 µM
TGI (HL-60(TB) leukemia): > 100 µM
TGI (SF-268 CNS): > 100 µM
TGI (SF-295 CNS): > 100 µM
TGI (K-562 leukemia): > 100 µM
TGI (SK-MEL-28 melanoma): > 100 µM
TGI (OVCAR-8 ovarian): > 100 µM
TGI (OVCAR-4 ovarian): > 100 µM
TGI (SNB-19 CNS): > 100 µM
TGI (DLD-1 colon): > 100 µM
TGI (NCI-H522 lung): > 100 µM
TGI (A549 NSCLC): > 100 µM
TGI (IGROV1 ovarian): > 100 µM
TGI (HOP-62 NSCLC): > 100 µM
TGI (SNB-75 CNS): > 100 µM
TGI (ACHN renal): > 100 µM
TGI (SN12C renal): > 100 µM
TGI (SF-539 CNS): > 100 µM
TGI (CCRF-CEM leukemia): > 100 µM
TGI (LOX IMVI melanoma): > 100 µM
TGI (SK-OV-3 ovarian): > 100 µM
TGI (UO-31 renal): > 100 µM
TGI (HCT-116 colon): > 100 µM
TGI (DMS 273 small cell lung): > 100 µM
TGI (UACC-62 melanoma): > 100 µM
TGI (KM12 colon): > 100 µM
TGI (TK-10 renal): > 100 µM
TGI (NCI-H226 lung): > 100 µM
TGI (SR leukemia): > 100 µM
TGI (OVCAR-3 ovarian): > 100 µM
TGI (NCI-H23 lung): > 100 µM
TGI (EKVX NSCLC): > 100 µM
TGI (OVCAR-5 ovarian): > 100 µM
TGI (CAKI-1 renal): > 100 µM
TGI (A498 renal): > 100 µM
TGI (MOLT-4 leukemia): > 100 µM
TGI (SW-620 colon): > 100 µM
TGI (M14 melanoma): > 100 µM
TGI (DMS 114 small cell lung): > 100 µM
TGI (XF 498 CNS): > 100 µM
TGI (MALME-3M melanoma): > 100 µM
TGI (RXF 393 renal): > 100 µM
TGI (KM20L2 colon): > 100 µM
TGI (UACC-257 melanoma): > 100 µM
TGI (HOP-18 NSCLC): > 100 µM
TGI (HCC-2998 colon): > 100 µM
TGI (U251 CNS): > 100 µM
TGI (LXFL 529 NSCLC): > 100 µM
TGI (SK-MEL-5 melanoma): > 100 µM
TGI (RXF-631 renal): > 100 µM
TGI (COLO 205 colon): > 100 µM

Cc1ccc(S(=O)(=O)OC2CSSCC2OS(=O)(=O)c2ccc(C)cc2)cc1 (stereo unspecified)
TGI (HCT-15 colon): 22.5 µM
TGI (HOP-92 NSCLC): 23.7 µM
TGI (M19-MEL melanoma): 26.3 µM
TGI (SNB-78 CNS): 37 µM
TGI (HT29 colon): 22 µM
TGI (786-0 renal): 25.1 µM
TGI (HL-60(TB) leukemia): 22 µM
TGI (SF-268 CNS): 31.9 µM
TGI (SF-295 CNS): 30.5 µM
TGI (K-562 leukemia): 47.6 µM
TGI (SK-MEL-28 melanoma): 30.3 µM
TGI (OVCAR-8 ovarian): 26.1 µM
TGI (OVCAR-4 ovarian): 23.3 µM
TGI (RPMI-8226 leukemia): 46.3 µM
TGI (SNB-19 CNS): 31.7 µM
TGI (DLD-1 colon): 24.7 µM
TGI (NCI-H522 lung): 22.8 µM
TGI (A549 NSCLC): 31.9 µM
TGI (IGROV1 ovarian): 32.9 µM
TGI (HOP-62 NSCLC): 43.2 µM
TGI (SNB-75 CNS): 28.1 µM
TGI (ACHN renal): 28.9 µM
TGI (SN12C renal): 24 µM
TGI (SF-539 CNS): 22.8 µM
TGI (CCRF-CEM leukemia): 28.3 µM
TGI (LOX IMVI melanoma): 28.5 µM
TGI (SK-OV-3 ovarian): 38.4 µM
TGI (SK-MEL-2 melanoma): 29.1 µM
TGI (UO-31 renal): 28.5 µM
TGI (HCT-116 colon): 26 µM
TGI (DMS 273 small cell lung): 21.8 µM
TGI (UACC-62 melanoma): 24.6 µM
TGI (KM12 colon): 28.3 µM
TGI (TK-10 renal): 28.9 µM
TGI (NCI-H226 lung): 33.6 µM
TGI (SR leukemia): 38.8 µM
TGI (OVCAR-3 ovarian): 26.2 µM
TGI (NCI-H23 lung): 33.3 µM
TGI (EKVX NSCLC): 50 µM
TGI (OVCAR-5 ovarian): 38 µM
TGI (CAKI-1 renal): 26.1 µM
TGI (MOLT-4 leukemia): 7.61 µM
TGI (SW-620 colon): 29.6 µM
TGI (M14 melanoma): 25.1 µM
TGI (DMS 114 small cell lung): 26.4 µM
TGI (MALME-3M melanoma): 34.3 µM
TGI (RXF 393 renal): 37.7 µM
TGI (KM20L2 colon): 30.4 µM
TGI (UACC-257 melanoma): 22.8 µM
TGI (HOP-18 NSCLC): 31.1 µM
TGI (HCC-2998 colon): 35.5 µM
TGI (U251 CNS): 27.2 µM
TGI (LXFL 529 NSCLC): 23.6 µM
TGI (SK-MEL-5 melanoma): 29.7 µM
TGI (RXF-631 renal): 26.5 µM
TGI (COLO 205 colon): 26.6 µM
TGI (NCI-H460 lung): 31.8 µM
